The source of these data is PMC12179625, “Development of an LC-MS/MS method for quantification of colistin and colistin methanesulfonate in human plasma and its application to stability studies and therapeutic drug monitoring” (Journal of Mass Spectrometry and Advances in the Clinical …, 2025).

The Tmax is the time from dosing to the highest level. A word on the Cmax: it is the maximum level reached in the sampled fluid or tissue. In general, AUC(0-inf) refers to the area under the concentration-time curve extrapolated to infinity. A high value points to more exposure.

Read-outs that look alike come from different tables or passages of the source. Where a SMILES comes first, the peptide text is derived from it. Bridges are numbered along the chain shown (N, C = ends). [ ]: non-standard residue; d: D form. The star is where a group is joined. X1 = CC[C@H](C)CCCCC(=O)*; Dab = NCC[C@H](N)C(=O)O

For data set [1] the following is noted: cited from earlier work. The protocol: The concentration–time curves and PK parameters of colistin and CMS are shown in Fig. 6 and Table 5, respectively. A total of three patients treated with CMS for carbapenem-resistant Gram-negative bacterial infections were included in this study (Ethical approval number: TJ-IRB20220737). The measured trough concentrations of colistin (Cmin) ranged from 0.97 μg/mL to 2.84 μ g/mL, and the average Cmin was 1.61 ± 1.06 μ g/mL.

Data set [2] can be described thus: Pharmacokinetics / TDM of CMS and colistin in patient plasma. It is filed as in vivo, human. The following applies: for AUC(0-t): 150 mg CBA. The procedure: (§1) The SPE column was activated by using 1 mL of methanol followed by 2 mL of ultrapure water. Subsequently, 200 μL of either calibration standard samples, QC samples, or patient plasma samples were mixed with 100 μL of IS working solution and 700 μL of 1.43 % ammonia, This step is to ensure that the solution is in a non-acidic environment. This mixture was thoroughly vortexed to ensure homogeneity. The mixed samples were then loaded onto the Welch BRP SPE columns. After sequentially washing the column with a total of 4 mL of 1 % ammonia, the analytes were eluted twice with 200 μL of […] (30:70, v/v) containing 4 % formic acid. Ultimately, 400 μL total eluate was collected and analyzed by LC-MS/MS.
The concentration of CMS was determined by calculating the difference between the concentration of total colistin after complete in vitro conversion and the concentration of free colistin in vivo. In vitro conversion of CMS was performed by sulfuric acid hydrolysis. Samples were processed as follows: 25 μL of 1 mol/L H2SO4 was added to a tube containing 200 μL of patient plasma sample and 100 μL of IS working solution, acidified at room temperature on a shaker for 1 h, and then 50 μL of 1 mol/L NaOH was added to neutralize the acid hydrolysis to maintain the pH of the final solution in the range of 7.0–7.5. After vortex mixing, 625 μL of 1.43 % ammonia solution was added and mixed thoroughly. After this conversion process, the concentration of total colistin was determined as free colistin described above.
The study included three patients infected with carbapenem-resistant Gram-negative bacteria. The patients provided informed consent, and the research project was carried out following the regulations of the Ethics Committee (Ethical approval number: TJ-IRB20220737) of Tongji Medical College, Huazhong University of Science and Technology. The physician prescribed a weight-based dosing regimen with a 300 mg loading dose of colistin base activity (CBA) and a maintenance dose of 150 mg CBA. The sample collection for this session took place during the administration of the fourth dose. […] Blood samples were collected by EDTA tubes and placed on ice and transported to the lab within 2 h. The samples were centrifuged at a speed of 1000 g for 10 min at 4°C and the supernatant was stored at −20 °C for subsequent sample preparation.
Pharmacokinetic parameters, including area under the concentration–time curve from 0 to the last measurable time point (AUC0-t) and from 0 to infinity (AUC0-∞), peak concentration (Cmax), time to reach peak concentration (Tmax), elimination half-life (t1/2), apparent volume of distribution (V), apparent total clearance (CL), and mean residence time (MRT0-∞) were calculated using DAS 2.0 (Shanghai University of TCM, China).

The nature of data set [3]: Autosampler stability of processed colistin samples. Format: physicochemical. The following applies: autosampler 4 °C, accuracy, LC-MS/MS, mean ± SD, n = 3. The procedure:
as §1
(§2) This study investigated the stability of colistin A and colistin B during the assay process, including the stability of plasma samples at room temperature for 24 h, the stability through three cycles of repeated freeze–thaw from −80 °C to room temperature, the stability during storage at −80 °C for three months, and the autosampler stability of processed samples at 4°C for 24 h. Three parallel samples were prepared for each condition. If the accuracy of the samples under storage conditions is within 85 % to 115 %, the stability is considered acceptable.

A short description of data set [4]: Stability of colistin A and colistin B in plasma samples. Format: in vitro ADME. The following applies: spiked human plasma, accuracy vs theoretical concentration, LC-MS/MS, mean ± SD, n = 3; for −80 °C freeze–thaw 3 times: three freeze–thaw cycles −80 °C to room temperature. The procedure:
The calibration standard samples and QC samples were both obtained by diluting the corresponding working solution with blank plasma at a ratio of 1:19. The concentrations of the calibration standard samples were 0.10, 0.25, 0.50, 1.0, 2.5, 5.0, 8.0 and 10 μg/mL while the concentrations of the QC samples were 0.10 (LLOQ), 0.30 (LQC), 2.0 (MQC), 7.5 (HQC), and 30 (DQC) μg/mL.
as §1, §2

The mark [5] stands for this setting: CMS infusion, 150 mg CBA maintenance, fourth dose, plasma, LC-MS/MS, patient 1.
Where [6] appears, read: CMS infusion, 150 mg CBA maintenance, fourth dose, plasma, LC-MS/MS, patient 2.
The mark [7] stands for this setting: CMS infusion, 150 mg CBA maintenance, fourth dose, plasma, LC-MS/MS, patient 3.

As for `CC[C@H](C)CCCCC(=O)N[C@@H](CCN)C(=O)N[C@H](C(=O)N[C@@H](CCN)C(=O)N[C@H]1CCNC(=O)[C@H]([C@@H](C)O)NC(=O)[C@H](CCN)NC(=O)[C@H](CCN)NC(=O)[C@H](CC(C)C)NC(=O)[C@@H](CC(C)C)NC(=O)[C@H](CCN)NC1=O)[C@@H](C)O` [Colistin, colistin] (X1-[Dab]T[Dab][Dab][Dab][dL]L[Dab][Dab]T; lactam 4-C), the Tmax is 2 h in data set [1] (healthy subjects); 2.00 h in data set [2] (setting [5]); 2.00 h in data set [2] (setting [6]); 3.00 h in data set [2] (setting [7]); 2.33 ± 0.58 h in data set [2] (human, in vivo, iv, patients on CMS infusion (300 mg CBA loading, 150 mg CBA maintenance), fourth dose, plasma, SPE LC-MS/MS, mean ± SD of 3 patients, SD, read-out: Tmax). For the same compound, the half-life is 3.0 ± 0.6 h in data set [1] (healthy volunteers, ref Couet W et al., 31) and 9.94 ± 4.72 h in data set [2] (human, in vivo, iv, patients on CMS infusion (300 mg CBA loading, 150 mg CBA maintenance), fourth dose, plasma, SPE LC-MS/MS, DAS 2.0, mean ± SD of 3 patients, SD, read-out: t1/2 (elimination half-life) (converted)). Also, the AUC0-12h in data set [2] (setting [5]) came out at 18730 ng·h/mL; in data set [2] (setting [6]) it was 43030 ng·h/mL; in data set [2] (setting [7]), 18490 ng·h/mL. Moreover, the AUC0-24h in data set [2] (setting [5]) stood at 37480 ng·h/mL; in data set [2] (setting [6]) it was 85740 ng·h/mL; in data set [2] (setting [7]), 37080 ng·h/mL; in data set [2] (first of the three patients), 37430 ng·h/mL; in data set [2] (second of the three patients), 86050 ng·h/mL; in data set [2] (third of the three patients), 36980 ng·h/mL. Also, the “AUC0-∞” value in data set [2] (setting [5]) was 31440 ng·h/mL; in data set [2] (setting [6]), 105170 ng·h/mL; in data set [2] (setting [7]) it was 25180 ng·h/mL. In addition, the “CL (apparent total clearance)” value is given as 4.77 L/h in data set [2] (setting [5]), 1.43 L/h in data set [2] (setting [6]) and 5.96 L/h in data set [2] (setting [7]). The Cmax in data set [2] (setting [5]) amounted to 2080 ng/mL; in data set [2] (setting [6]), 4520 ng/mL; in data set [2] (setting [7]), 2450 ng/mL; in data set [2] (human, in vivo, iv, patients on CMS infusion (300 mg CBA loading, 150 mg CBA maintenance), fourth dose, plasma, SPE LC-MS/MS, mean ± SD of 3 patients, SD, read-out: Cmax), 3010 ± 1320 ng/mL. Besides, the Cmin in data set [2] (setting [5]) was found to be 970 ng/mL; in data set [2] (setting [6]), 2840 ng/mL; in data set [2] (setting [7]) it was 1040 ng/mL; in data set [2] (patients on CMS infusion (300 mg CBA loading, 150 mg CBA maintenance), fourth dose, plasma, SPE LC-MS/MS, mean ± SD of 3 patients, SD) it was 1610 ± 1060 ng/mL. Moreover, the Css stood at 1560 ng/mL in data set [2] (setting [5]); 3570 ng/mL in data set [2] (setting [6]); 1550 ng/mL in data set [2] (setting [7]); 2230 ± 1170 ng/mL in data set [2] (patients on CMS infusion (300 mg CBA loading, 150 mg CBA maintenance), fourth dose, plasma, SPE LC-MS/MS, DAS 2.0, mean ± SD of 3 patients, SD). For the same compound, the “MRT0-∞ (mean residence time)” value amounted to 13.34 h in data set [2] (setting [5]), 22.04 h in data set [2] (setting [6]) and 10.86 h in data set [2] (setting [7]). Further, the “Vz (apparent volume of distribution)” value in data set [2] (setting [5]) worked out at 62.61 L; in data set [2] (setting [6]) it was 30.93 L; in data set [2] (setting [7]), 49.04 L. In addition, the “t1/2 (elimination half-life)” value was determined as 9.09 h in data set [2] (setting [5]), 15.03 h in data set [2] (setting [6]) and 5.71 h in data set [2] (setting [7]). The “Css,avg” value in data set [2] (first of the three patients) stood at 1560 ng/mL. For the same compound, the AUC(0-t) amounted to 26800 ± 14100 ng·h/mL in data set [2] (human, in vivo, iv, patients on CMS infusion (300 mg CBA loading, 150 mg CBA maintenance), fourth dose, plasma, SPE LC-MS/MS, DAS 2.0, mean ± SD of 3 patients, SD, read-out: AUC0-12h) and 53400 ± 28000 ng·h/mL in data set [2] (human, in vivo, iv, patients on CMS infusion (300 mg CBA loading, 150 mg CBA maintenance), fourth dose, plasma, SPE LC-MS/MS, DAS 2.0, mean ± SD of 3 patients, SD, read-out: AUC0-24h). In data set [2] (human, in vivo, iv, patients on CMS infusion (300 mg CBA loading, 150 mg CBA maintenance), fourth dose, plasma, SPE LC-MS/MS, DAS 2.0, mean ± SD of 3 patients, SD), this compound returned an AUC(0-inf) of 53900 ± 44500 ng·h/mL. Moreover, in data set [2] (human, in vivo, iv, patients on CMS infusion (300 mg CBA loading, 150 mg CBA maintenance), fourth dose, plasma, SPE LC-MS/MS, DAS 2.0, mean ± SD of 3 patients, SD, read-out: CL (apparent total clearance) (converted)), the clearance was 67.5 mL/min. In addition, in data set [2] (human, in vivo, iv, patients on CMS infusion (300 mg CBA loading, 150 mg CBA maintenance), fourth dose, plasma, SPE LC-MS/MS, DAS 2.0, mean ± SD of 3 patients, SD, read-out: MRT0-∞ (mean residence time)), the MRT came to 15.4 ± 5.87 h. Also, in data set [2] (human, in vivo, iv, patients on CMS infusion (300 mg CBA loading, 150 mg CBA maintenance), fourth dose, plasma, SPE LC-MS/MS, DAS 2.0, mean ± SD of 3 patients, SD, read-out: Vz (apparent volume of distribution)), the Vd came to 47.5 ± 15.9 L. Also, the “time at which peak concentration (Cmax) was reached” value in data set [2] (in words, three patients, CMS infusion (1 h)) was “at 1-hour post-infusion”.
Regarding colistin methanesulfonate [CMS], in data set [1] (human, in vivo), the Tmax was 1 h and the half-life is on record as 2.0 ± 0.12 h. In data set [2] (human, in vivo, iv, SD), the “CL (apparent total clearance)” value is recorded as 6.87 ± 1.38 L/h, the Tmax amounted to 1.33 ± 0.58 h, the “Vz (apparent volume of distribution)” value came to 14.11 ± 2.39 L and the “t1/2 (elimination half-life)” value was 1.50 ± 0.57 h.
Turning to `CC[C@H](C)CCCCC(=O)N[C@@H](CCN)C(=O)N[C@H](C(=O)N[C@@H](CCN)C(=O)N[C@H]1CCNC(=O)[C@H]([C@@H](C)O)NC(=O)[C@H](CCN)NC(=O)[C@H](CCN)NC(=O)[C@H](CC(C)C)NC(=O)[C@@H](CC(C)C)NC(=O)[C@H](CCN)NC1=O)[C@@H](C)O` [Colistin A, colistin A] (X1-[Dab]T[Dab][Dab][Dab][dL]L[Dab][Dab]T; lactam 4-C), the “Processed sample In the sampler at 4 °C for 24 h” value in data set [3] (SPE eluate (acetonitrile 30:70 with 4 % formic acid) of HQC 7.5 μg/mL plasma) worked out at 100.74 ± 4.06%. In addition, the “Processed sample In the sampler at 4 °C for 24 h” value in data set [3] (SPE eluate (acetonitrile 30:70 with 4 % formic acid) of LQC 0.30 μg/mL plasma) is given as 102.44 ± 1.43%. In data set [4] (HQC 7.5 μg/mL), the “Frozen at −80 °C for 3 months” value turned out to be 101.24 ± 1.46%, the “Room temperature 24 h” value was determined as 91.48 ± 3.06% and the “−80 °C freeze–thaw 3 times” value is 93.04 ± 1.97%. Also, in data set [4] (LQC 0.30 μg/mL), the “Frozen at −80 °C for 3 months” value was 98.31 ± 5.04%, the “Room temperature 24 h” value is on record as 104.77 ± 4.59% and the “−80 °C freeze–thaw 3 times” value came out at 106.19 ± 2.48%.
